Test results reported in US5635510A, “Substituted pyrrolidin-3-yl-alkyl-piperidines” (Merrell Pharmaceuticals Inc., priority 1994, dated 1997).

Columns and labels:
[1] = target: T1, human jejunal NK2 receptor (Homo sapiens, UniProt P21452); assay: Antagonism of iodinated neurokinin A binding to NK2 receptor, HSKR-1 cells (mouse 3T3 fibroblasts expressing the human jejunal NK2 receptor); conditions: NK-2 IC50, HSKR-1 cells, 125I-neurokinin A, mean of several experiments
T1 construct: expressed in transfected cells; host or cells: HSKR-1 cells (mouse 3T3 fibroblasts)
T1 sequence (P21452 1-398): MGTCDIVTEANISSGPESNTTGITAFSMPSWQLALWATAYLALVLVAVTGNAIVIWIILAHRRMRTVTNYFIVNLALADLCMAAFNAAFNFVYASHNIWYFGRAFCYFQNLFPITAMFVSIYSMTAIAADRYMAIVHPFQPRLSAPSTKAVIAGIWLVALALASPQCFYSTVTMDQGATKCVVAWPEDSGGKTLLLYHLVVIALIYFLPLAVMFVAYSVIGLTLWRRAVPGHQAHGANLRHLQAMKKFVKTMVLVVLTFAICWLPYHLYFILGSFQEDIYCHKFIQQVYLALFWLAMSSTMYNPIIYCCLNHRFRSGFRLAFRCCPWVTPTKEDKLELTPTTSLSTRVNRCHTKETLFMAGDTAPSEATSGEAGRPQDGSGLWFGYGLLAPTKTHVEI
Protocol: (§1) ANTAGONISM OF IODINATED TACHYKININ BINDING TO NK1 AND NK2
(§2) RECEPTORS BY PUTATIVE ANTAGONISTS
(§3) The NK1 receptor affinity of proposed tachykinin antagonists was evaluated in guinea pig lungs (Keystone Biologicals, Cleveland, OH), affinity for the NK2 receptor evaluated in HSKR-1 cells (which are mouse 3T3 fibroblasts expressing the human jejunal NK2 receptor) and NK-3 receptor affinity was evaluated in freshly collected guinea pig cerebral cortex. Tissues or cells were homogenized with a Polytron in 15 volumes of 50 mM Tris-HCl buffer (pH 7.4, 4° C.) and centrifuged. The pellet was resuspended in Tris-HCl buffer and was centrifuged; the pellet was washed twice by resuspension. The final pellet was resuspended at a concentration of 40 mg/ml for tissues (guinea pig lung and cerebral cortex) and 20 mg/ml for cells in incubation buffer and remained at room temperature for at least 15 min prior to use. Receptor binding was initiated by addition of 250 ul membrane preparation in duplicate to 0.1 nM of the following radioligands: ^125 I-Bolton Hunter Lys-3 labeled substance P; ^125 iodohistidyl-1-neurokinin A; and ^125 I-Bolton Hunter labeled Lys-4 eledoisin in a final volume of 500 ul of buffer containing 50 mM Tris-HCl (pH 7.4 at room temperature), 0.1% bovine serum albumin, 2 mM MnCl2, 40 ug/ml bacitracin, 4 μg/ml leupeptin and chymostatin, 1 μM thiorphan and various doses of the putative tachykinin antagonists. Incubations were performed at room temperature for 90 min (NK1 receptor assays) or 2 hr (NK2 and NK3 receptor assays); binding was terminated by addition of 50 mM Tris-HCl buffer (pH 7.4, 4° C.) and filtration under vacuum through GF/B filters presoaked with 0.1% polyethyleneimine (NK1 receptor assays) or 0.5% bovine serum albumin (NK2 and NK3 receptor assays). Filter bound radioactivity was quantitated in a gamma counter. Nonspecific binding was defined as binding in the presence of 1 μM substance P, neurokinin A, or eledoisin. Specific binding was calculated by subtracting nonspecific binding from total binding. Competition of iodinated SP, NKA, or eledoisin binding by test compounds or standards was expressed as a percentage of this maximum competition. IC50 values (concentration required to inhibit 50% of receptor binding) were generated for each of the test compounds by nonlinear regression using an iterative curve fitting program (GraphPAD Inplot, San Diego, Calif.).

NK-3 receptor = target: T2, NK-3 receptor (Cavia porcellus, UniProt P30098); assay: Antagonism of iodinated eledoisin binding to NK3 receptor, guinea pig cerebral cortex; conditions: NK-3 IC50, guinea pig cerebral cortex, 125I-eledoisin, mean of several experiments
T2 construct: evaluated in freshly collected guinea pig cerebral cortex; from tissue; host or cells: guinea pig cerebral cortex
T2 sequence (P30098 1-440): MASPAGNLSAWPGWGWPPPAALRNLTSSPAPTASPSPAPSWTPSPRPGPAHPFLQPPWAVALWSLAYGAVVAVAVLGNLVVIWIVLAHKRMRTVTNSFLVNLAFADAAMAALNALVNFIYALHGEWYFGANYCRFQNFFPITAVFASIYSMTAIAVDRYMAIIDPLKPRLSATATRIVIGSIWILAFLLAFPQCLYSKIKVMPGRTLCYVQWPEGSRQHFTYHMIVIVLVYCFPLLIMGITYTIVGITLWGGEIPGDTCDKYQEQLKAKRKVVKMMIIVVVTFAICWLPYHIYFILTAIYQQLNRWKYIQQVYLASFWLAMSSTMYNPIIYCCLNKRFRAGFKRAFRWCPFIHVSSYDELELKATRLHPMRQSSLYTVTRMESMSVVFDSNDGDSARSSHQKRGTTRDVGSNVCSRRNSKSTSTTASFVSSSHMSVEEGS
Protocol: as §1, §2
as §3, with “Nonspecific binding was defined as binding in the presence of 1 μM substance P, neurokinin A, or eledoisin.” left out, “IC50 values (concentration required to inhibit 50% of receptor binding) were generated for each of the test compounds by nonlinear regression using an iterative curve fitting program (GraphPAD Inplot, San Diego, Calif.).” left out

NK1 receptor = target: T3, NK1 receptor (Cavia porcellus, UniProt P30547); assay: Antagonism of iodinated substance P binding to NK1 receptor, guinea pig lung; conditions: NK-1 IC50, guinea pig lung, 125I-substance P, mean of several experiments
T3 construct: evaluated in guinea pig lungs; tissue Keystone Biologicals, Cleveland, OH; host or cells: guinea pig lung
Protocol: as §1, §2, §3

T3 sequence (P30547 whole entry): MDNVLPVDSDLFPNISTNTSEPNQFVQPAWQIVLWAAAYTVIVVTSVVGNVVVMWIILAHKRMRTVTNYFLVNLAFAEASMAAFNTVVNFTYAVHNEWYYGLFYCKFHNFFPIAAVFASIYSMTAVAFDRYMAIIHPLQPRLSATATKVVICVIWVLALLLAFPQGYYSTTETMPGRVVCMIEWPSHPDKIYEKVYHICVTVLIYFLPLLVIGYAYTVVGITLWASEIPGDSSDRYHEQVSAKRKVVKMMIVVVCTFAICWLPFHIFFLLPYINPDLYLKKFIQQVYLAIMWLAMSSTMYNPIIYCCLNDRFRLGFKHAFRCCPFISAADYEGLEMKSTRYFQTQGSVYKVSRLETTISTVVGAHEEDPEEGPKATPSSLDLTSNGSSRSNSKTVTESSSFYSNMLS

## COc1cc(C(=O)N2CCC(CCN3CCC(C(N)=O)(c4ccccc4)CC3)(c3ccc(Cl)c(Cl)c3)C2)cc(OC)c1OC (single isomer, unassigned; (-)) [Example 21, (-)-1-[2-[3-(3,4-dichlorophenyl)-1-(3,4,5-trimethoxy-benzoyl)-pyrrolidin-3-yl]-ethyl]-4-phenyl-piperidine-4-carboxylic acid amide]
[1]
  IC50: 760 nM
NK-3 receptor
  IC50: 2300 nM
NK1 receptor
  IC50: 183 nM
